Here are results for seven compounds from patent publication US20040152708A1, “Trans-9,10-dehydroepothilone C and D, analogs thereof and methods of making the same” (priority 2002, published 2004).

Data set [1] concerns multi-drug resistant breast carcinoma cell line NCI/ADR. The data set is described as follows: SRB cytotoxicity assay, NCI/ADR. Type of data set: cell-based, human. Conditions: Homo sapiens, NCI/ADR-RES, 72 h; Table 1; 3 days, SRB; read-out: IC50 NCI/ADR. The procedure: (§1) Compounds of the invention may be screened for cytotoxicity using conventional assays well known to those skilled in the art. For example, cytotoxicity of the compounds may be determined by the SRB assay as disclosed in Skehan et al., J. Natl. Cancer Inst. 82:1107-1112 (1990), which is incorporated herein by reference. In the SRB assay, the following cultured cells are trypsinized, counted and diluted to the following concentrations per 100 μl with growth medium: MCF-7, 5000; NCI/ADR-Res, 7500; NCI-H460, 5000; A549, 5000; Skov3, 7500; and SF-268, 7500. The cells are seeded at 100 μl/well in 96-well microtiter plates. Twenty-four hours later, 100 μl of a test epothilone compound of the invention (ranging in concentration from 1000 nM to 0.001 nM diluted in growth medium) is added to each well. After incubation, with the compound for a period of days, the cells are fixed with 100 μl of 10% trichloroacetic acid (“TCA”) at 4 degrees for 1 hour, and stained with 0.2% sulforhodamine B (SRB)/1% acetic acid, and the bound SRB is then extracted with 200 μl of 10 mM Tris base. The amount of bound dye is determined by OD 515 nm, which correlates to the total cellular protein contents. The data is analyzed using standard statistical methodologies (such as those available with the software sold as KALEIDA GRAPH® by Synergy Software of Reading, Pa.) and the IC50s are calculated.
(§2) Human breast carcinoma cell line MCF-7, multi-drug resistant breast carcinoma cell line NCI/ADR, were obtained from the National Cancer Institute. Human non-small cell lung cancer cell line A549 and human ovarian cancer cell line SKOV-3 were obtained from American Type Culture Collection (Manassas, Va.). All cell lines were maintained in RPMI-1640 medium (Gibco/BRL, Rockville, Md.) supplemented with 2 mM L-glutamine, 25 mM HEPES and 10% FBS (Hyclone, Logan, Utah). Cells were maintained in a humidified incubator at 37° C. in 5% CO2.
(§3) Tumor cells were seeded in 100 μl at 5000 (MCF-7), 7500 (NCI/ADR), 5000 (A549) and 7500 (SKOV3) cells per well in 96-well plates. Cells were allowed to adhere for 24 hours. Each compound ranging from 0.001 to 1000 nM in 100 μl was added to cells in duplicate wells. After 3 days, cells were fixed at 4° C. for 1 hour with 10% trichloroacetic acid and then stained with 0.2% sulforhodamine B (SRB)/1% acetic acid for 20 minutes at room temperature. The unbound dye was rinsed away with 1% acetic acid, and the bounded SRB was then extracted with 200 μl of 10 mM Tris base. The absorbance was measured at 515 nm using a 96-well microtiter plate reader (Spectra Max 250, Molecular Devices). The IC50 values were calculated using a KaleidaGraph program. The experiments were performed twice.

Data set [2] in a line: Half-life in mouse plasma. Particulars: fresh mouse plasma. Here is the method: […] At Time Zero, aliquotted 75 μl from each sample and added 150 μl of acetonitrile. Centrifuged the white precipitate at 13500 rpm for 3 minutes. Transferred all the clear supernatant into another microcentrifuge tube and repeated the centrifuging step (13500 rpm/3 min). Carefully pipetted 150 μl of the clear supernatant into labeled HPLC sample tubes and tried to avoid pipetting any protein pellets. The samples were analyzed by HPLC to measure remaining compound at each time point by comparison with authentic standards.

For data set [3], the system named is human ovarian cancer cell line SKOV-3. Nature of the data set: SRB cytotoxicity assay, SKOV3. Particulars: Homo sapiens, SK-OV-3, 72 h; Table 1; 3 days, SRB; read-out: IC50 SKOV3. Type of data set: cell-based. Here is the method: as §1, §2, §3
(The SRB assay estimates cell density from bound dye.)

Data set [4] can be described thus: Compound solubility in phosphate-buffered saline. Type of data set: physicochemical. Particulars: aqueous buffer, kinetic from dmso stock; 5 μL of 20 mg/mL DMSO stock in 95 μL phosphate-buffered saline, 0.45 micron filter, HPLC. The procedure: Compound solubility was determined as follows: 5 μL of stock solution (at 20 mg/mL in DMSO) was added to 95 μL of phosphate-buffered saline. After being vortexed for about 10 seconds, the solution/suspension was filtered through a 0.45 micron filter and the amount of analyte was quantitated by HPLC. Solubilities (mg/mL) determined were as follows: epothilone D, <0.06; trans-9,10-dehydroepothilone D, <0.06; 21-OH-26-F3-trans-9,10-dehydroepothilone D, 0.1; 21-amino-trans-9,10-dehydroepothilone D, >0.6; 21-amino-26-F3-trans-9,10-dehydroepothilone D, >0.6; 26-F3-trans-9,10-dehydroepothilone D, <0.06; 21-OH-trans-9,10-dehydroepothilone D, 0.1; KOSN 1635, <0.02; KOSN 1632, 0.12.

In a further data set the target is T1, CYP2C19 (Homo sapiens, UniProt P33261).
T1 construct: purchased BD GenTest, Woburn, Mass
T1 sequence (P33261 whole entry): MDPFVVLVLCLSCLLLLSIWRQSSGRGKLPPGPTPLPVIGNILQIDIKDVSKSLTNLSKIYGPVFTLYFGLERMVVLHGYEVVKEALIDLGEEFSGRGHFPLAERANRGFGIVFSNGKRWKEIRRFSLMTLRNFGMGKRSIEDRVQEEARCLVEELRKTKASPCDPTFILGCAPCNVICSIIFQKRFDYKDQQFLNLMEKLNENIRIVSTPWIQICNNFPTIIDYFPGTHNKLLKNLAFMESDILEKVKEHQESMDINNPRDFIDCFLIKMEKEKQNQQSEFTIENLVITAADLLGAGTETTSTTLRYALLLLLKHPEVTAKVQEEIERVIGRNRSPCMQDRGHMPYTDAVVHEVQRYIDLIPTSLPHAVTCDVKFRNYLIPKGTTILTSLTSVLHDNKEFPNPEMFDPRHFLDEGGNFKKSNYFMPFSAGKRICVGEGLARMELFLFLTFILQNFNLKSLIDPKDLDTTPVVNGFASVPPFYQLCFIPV
Nature of the data set: Cytochrome P450 inhibition, CYP2C19. Type of data set: in vitro ADME. Particulars: human.

Data set [5] concerns Human non-small cell lung cancer cell line A549. Nature of the data set: SRB cytotoxicity assay, A549. Particulars: Homo sapiens, A549, 72 h; Table 1; 3 days, SRB; read-out: IC50 A549. Type of data set: cell-based. Here is the method:
as §1, §2, §3

The next data set has as its target T2, CYP3A4 (Homo sapiens, UniProt P08684).
T2 construct: purchased BD GenTest, Woburn, Mass
Nature of the data set: Cytochrome P450 inhibition (BD GenTest kit, BFC substrate), CYP3A4. Type of data set: in vitro ADME. The text has this: Following the procedure of Examples 39 (when R=methyl) and 42 (when R=CF3), the additional compounds shown in Table 2 were made by replacing (2-(tert-butyldimethyl-silyloxy)-methylthiazol-4-yl)methyltri-n-butyl-phosphonium chloride with the corresponding phosphonium chloride. Cytotoxicity data (Table 2) was obtained as described in Example 48. Cytochrome P450 inhibition data (Table 3) was obtained using the initial rate method against BFC substrate.
Cytochrome P450 inhibition measurements were performed using a commercially-available kit (BD GenTest, Woburn, Mass.), using BFC as substrate against CYP3A4.

Data set [6] is described as follows: Half-life in human plasma. Particulars: fresh human plasma. The procedure: Half-lives of compounds in fresh mouse and human plasma were determined by dissolving the compounds in DMSO and adding aliquots to samples of mouse or human plasma. At Time Zero, aliquotted 75 μl from each sample and added 150 μl of acetonitrile. Centrifuged the white precipitate at 13500 rpm for 3 minutes. Transferred all the clear supernatant into another microcentrifuge tube and repeated the centrifuging step (13500 rpm/3 min). Carefully pipetted 150 μl of the clear supernatant into labeled HPLC sample tubes and tried to avoid pipetting any protein pellets. The samples were analyzed by HPLC to measure remaining compound at each time point by comparison with authentic standards.

A further data set addresses T3, CYP2C9 (Homo sapiens, UniProt P11712).
T3 construct: purchased BD GenTest, Woburn, Mass
The data set is described as follows: Cytochrome P450 inhibition, CYP2C9. Type of data set: in vitro ADME. Conditions: human.

The subject of data set [7] is Human breast carcinoma cell line MCF-7. Nature of the data set: SRB cytotoxicity assay, MCF-7. Type of data set: cell-based. Particulars: Homo sapiens, MCF7, 72 h; Table 1; 3 days, SRB; read-out: IC50 MCF-7. The procedure:
as §1, §2, §3

A short description of data set [8]: Plasma protein binding (ultrafiltration). Particulars: mouse or human plasma (species not given), 37° C. Type of data set: in vitro ADME. Here is the method: Plasma protein binding studies were performed as follows. Compounds were dissolved in DMSO, then diluted into either fresh or thawed samples of mouse or human plasma and incubated at 37° C. Time points of 50 μL were mixed with 100 μl of acetonitrile and centrifuged at ˜14000 rpm for 3 minutes. A 100 μL aliquot was removed from the supernatant and set aside for analysis to indicate compound in the total fraction. The remaining supernatant was transferred onto a Microcon ultrafiltration device fitted with a YM10 membrane and centrifuged to separate protein-bound material. A 50 μL aliquot of the protein-free filtrate was mixed with 100 μL of acetonitrile, centrifuged at ˜14000 rpm for 3 minutes, then 100 μL of the supernatant was collected and analyzed to determine the amount of compound not protein bound. The amount of compound in the total sample and in the protein-free fraction were determined by HPLC analysis against authentic standards.

The term half-life denotes how long it takes for the measured level to halve. A low value points to rapid decline. A word on the solubility: it is how much of the substance goes into solution per volume. A low value points to a poorly soluble substance.

Converted amounts (≈) assume the structure as drawn.

T3 sequence (P11712 whole entry): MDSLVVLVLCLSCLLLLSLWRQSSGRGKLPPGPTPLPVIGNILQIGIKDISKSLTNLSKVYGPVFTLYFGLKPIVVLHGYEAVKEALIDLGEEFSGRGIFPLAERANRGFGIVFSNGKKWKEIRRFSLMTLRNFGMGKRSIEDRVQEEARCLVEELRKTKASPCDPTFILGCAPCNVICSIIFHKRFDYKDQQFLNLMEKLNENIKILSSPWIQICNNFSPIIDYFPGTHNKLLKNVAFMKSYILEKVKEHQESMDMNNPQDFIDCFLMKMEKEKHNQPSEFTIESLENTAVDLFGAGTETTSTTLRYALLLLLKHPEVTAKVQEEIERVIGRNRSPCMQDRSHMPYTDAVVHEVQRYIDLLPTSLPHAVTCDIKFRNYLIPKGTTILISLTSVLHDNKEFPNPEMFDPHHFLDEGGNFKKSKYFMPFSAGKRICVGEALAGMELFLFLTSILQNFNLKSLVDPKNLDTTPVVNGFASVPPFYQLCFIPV
T2 sequence (P08684 whole entry): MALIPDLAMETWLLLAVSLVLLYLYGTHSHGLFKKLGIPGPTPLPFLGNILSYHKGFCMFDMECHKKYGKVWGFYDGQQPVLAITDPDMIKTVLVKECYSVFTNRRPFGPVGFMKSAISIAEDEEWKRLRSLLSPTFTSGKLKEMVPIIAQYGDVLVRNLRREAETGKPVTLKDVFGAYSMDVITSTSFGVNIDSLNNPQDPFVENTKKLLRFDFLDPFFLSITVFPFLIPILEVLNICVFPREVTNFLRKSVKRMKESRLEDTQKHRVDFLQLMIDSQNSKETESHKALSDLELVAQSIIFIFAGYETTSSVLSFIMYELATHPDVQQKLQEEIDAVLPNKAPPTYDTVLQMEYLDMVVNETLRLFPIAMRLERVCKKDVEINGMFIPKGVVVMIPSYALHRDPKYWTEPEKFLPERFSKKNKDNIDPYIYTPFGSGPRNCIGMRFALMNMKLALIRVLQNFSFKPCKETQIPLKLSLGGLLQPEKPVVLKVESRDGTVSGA

`C/C(=C\c1csc(C)n1)[C@@H]1C/C=C(/C(F)(F)F)C/C=C/[C@H](C)[C@H](O)[C@@H](C)C(=O)C(C)(C)[C@@H](O)CC(=O)O1` (relative stereo) [26-trifluoro 9,10-dehydroepothilone D, 26-trifluoro-trans-9,10-dehydroepothilone D, reference compound]: the IC50 in data set [1] turned out to be 33 nM; in [3] it was 22 nM; against CYP2C19, 3200 nM; in [5] it was 11 nM; at CYP3A4 it was 2000 nM; against CYP2C9, 14400 nM. Moreover, in [7], the IC50 is 5.3 nM. Besides, the half-life in data set [2] was 2.72 h; in data set [6] it was more than 24 h. Moreover, the solubility in data set [4] was less than 60 µg/mL. Besides, the “percentage of compound protein bound” value in data set [8] came to 96.5%.
With `C/C1=C/C[C@@H](/C(C)=C/c2csc(CN)n2)OC(=O)C[C@H](O)C(C)(C)C(=O)[C@H](C)[C@@H](O)[C@@H](C)/C=C/C1` [21-NH2 9,10-dehydroepothilone D, 21-amino-9,10-dehydro-epothilone D], the IC50 worked out at 25 nM in data set [1]; 5.7 nM in [3]; 630 nM against CYP2C19; 5.9 nM in data set [5]; 610 nM at CYP3A4; 830 nM at CYP2C9. In addition, in [7], the IC50 is 3.2 nM. Further, the half-life is 0.983 h in data set [2] and more than 24 h in [6]. This compound registered a solubility in data set [4] of more than 600 µg/mL. For the same compound, the “percentage of compound protein bound” value in data set [8] was determined as 89.5%.
On to `C/C1=C/C[C@@H](/C(C)=C/c2csc(CO)n2)OC(=O)C[C@H](O)C(C)(C)C(=O)[C@H](C)[C@@H](O)[C@@H](C)/C=C/C1` [21-OH 9,10-dehydroepothilone D, 21-hydroxy-9,10-dehydro-epothilone D], for which the IC50 in data set [1] was 14 nM; in [3], 5.7 nM; on CYP2C19, 5600 nM; in data set [5], 3.8 nM; on CYP3A4, 800 nM; at CYP2C9 it was 22000 nM. The IC50 in [7] was 2.3 nM. For the same compound, the half-life in data set [2] was 17.6 h; in data set [6], more than 24 h. In data set [4], this compound had a solubility of 100 µg/mL (≈ 198 µM). The “percentage of compound protein bound” value in data set [8] turned out to be 94.2%.
With `C/C(=C\c1csc(CO)n1)[C@@H]1C/C=C(/C(F)(F)F)C/C=C/[C@H](C)[C@H](O)[C@@H](C)C(=O)C(C)(C)[C@@H](O)CC(=O)O1` [21-hydroxy-9,10-dehydro-26-trifluoroepothilone D], the IC50 in [1] was determined as 65 nM; in data set [3], 7.9 nM; against CYP2C19, 20500 nM; in data set [5] it was 6.1 nM; against CYP3A4, 1000 nM; at CYP2C9, 17300 nM. Besides, the IC50 in data set [7] stood at 3.6 nM. The results for the half-life in [2] and in data set [6] were 6.32 h and more than 24 h, respectively. Also, the solubility in data set [4] amounted to 100 µg/mL (≈ 179 µM). The “percentage of compound protein bound” value in [8] amounted to 92.8%.
For the compound `C/C1=C/C[C@@H](/C(C)=C/c2csc(C)n2)OC(=O)C[C@H](O)C(C)(C)C(=O)[C@H](C)[C@@H](O)[C@@H](C)CCC1` [Epothilone D, Desoxyepothilone B, reference compound], the IC50 in [1] is 23 nM; in [3], 39 nM; against CYP2C19, 1600 to 3400 nM; in data set [5] it was 25 nM; at CYP3A4 it was 2400 nM; at CYP2C9 it was 9000 to 12000 nM. Further, the IC50 in [7] turned out to be 6.8 nM. In addition, the half-life is 0.817 h in data set [2] and more than 24 h in [6]. In addition, in [4], the solubility was less than 60 µg/mL. Besides, the “percentage of compound protein bound” value in [8] worked out at 98.5%.
Consider `C/C1=C/C[C@@H](/C(C)=C/c2ccccn2)OC(=O)C[C@H](O)C(C)(C)C(=O)[C@H](C)[C@@H](O)[C@@H](C)/C=C/C1` [KOSN 1632, 17-des(2-methyl-4-thiazolyl)-17-(2-pyridyl)-9,10-dehydropeothilone D], for which the IC50 in data set [1] turned out to be 4.6 nM; in data set [3], 4.4 nM; on CYP2C19, 3050 nM; in data set [5] it was 3.3 nM; against CYP3A4, 2520 nM; against CYP2C9, 15000 nM. Moreover, the IC50 in [7] worked out at 0.87 nM. In addition, the values for the half-life in data set [2] and in data set [6] were 0.467 h and more than 24 h, respectively. Further, in [4], the solubility was 120 µg/mL (≈ 256 µM). Besides, the “percentage of compound protein bound” value in data set [8] is reported as 89.4%.
Turning to `C/C1=C/C[C@@H](/C(C)=C/c2nc3ccccc3s2)OC(=O)C[C@H](O)C(C)(C)C(=O)[C@H](C)[C@@H](O)[C@@H](C)/C=C/C1` [KOSN 1635, 17-des(2-methyl-4-thiazolyl)-17-(2-benzothiazolyl)-9,10-dehydropeothilone D], the IC50 in [1] was found to be 5.6 nM; in data set [3], 3.4 nM; against CYP2C19, 3270 nM; in [5], 4.2 nM; on CYP3A4, 3120 nM; at CYP2C9, 4100 nM. For the same compound, in [7], the IC50 was determined as 1.1 nM. Also, the half-life in data set [2] is 0.967 h; in [6], more than 24 h. In data set [4], this compound returned a solubility of less than 20 µg/mL. The “percentage of compound protein bound” value in [8] is 99.7%.
